Key:
Oryctolagus cuniculus [1] = species: Oryctolagus cuniculus; experiment: Inhibition of chymotrypsin-like (CT-L) activity of rabbit 20S proteasome; format: functional
RPMI-8226 = experiment: Cytotoxic activity against RPMI 8226 cells; format: functional, cell-based; details: Homo sapiens
Oryctolagus cuniculus [2] = species: Oryctolagus cuniculus; experiment: Inhibition of trypsin-like (T-L) activity of rabbit 20S proteasome; format: functional
HEK293 = experiment: Inhibition of NF-kB activation in HEK293 cells; format: functional, cell-based; details: Homo sapiens
Oryctolagus cuniculus [3] = species: Oryctolagus cuniculus; experiment: Inhibition of caspase-like (CA-L) activity of rabbit 20S proteasome; format: functional

Compound | IC50 (Oryctolagus cuniculus [1]) [µM] | IC50 (RPMI-8226) [µM] | IC50 (Oryctolagus cuniculus [2]) [µM] | IC50 (HEK293) [µM] | IC50 (Oryctolagus cuniculus [3]) [µM]
C[C@@]12OC(=O)[C@]1([C@@H](O)[C@@H]1C=CCCC1)NC(=O)[C@@H]2CCN=[N+]=[N-] | 0.0077 | 5.5 | 0.21 | 1 | 0.56
C[C@@]12OC(=O)[C@]1([C@@H](O)[C@H]1CCC[C@H]3O[C@@H]13)NC(=O)[C@@H]2CCCl | 0.0063 | 0.032 | 0.092 | 0.034 | 0.57
CC[C@H]1C(=O)N[C@@]2([C@@H](O)[C@@H]3C=CCCC3)C(=O)O[C@@]12C [SALINOSPORAMIDE B] | 0.027 | – | 0.64 | 1.6 | –
C[C@@]12OC(=O)[C@]1([C@@H](O)[C@@H]1C=CCCC1)NC(=O)[C@@H]2CCI [IODOSALINOSPORAMIDE] | 0.0028 | 0.0068 | 0.013 | 0.01 | 0.41
C[C@@]12OC(=O)[C@]1(C(=O)[C@@H]1C=CCCC1)NC(=O)[C@@H]2CCCl | 8.2 | > 20 | 10 | > 20 | > 20
C[C@@]12OC(=O)[C@]1([C@@H](O)[C@@H]1C=CCCC1)NC(=O)[C@@H]2CCBr [BROMOSALINOSPORAMIDE] | 0.0026 | 0.0074 | 0.014 | 0.014 | 0.29
C[C@@]12OC(=O)[C@]1([C@@H](O)[C@H]1CCC[C@H](Cl)[C@H]1O)NC(=O)[C@@H]2CCCl | 8.2 | > 20 | > 20 | > 20 | > 20
C[C@@]12OC(=O)[C@]1(C(O)[C@@H]1C=CCCC1)NC(=O)[C@@H]2CCCl (some centres not stated) | > 20 | > 20 | > 20 | > 20 | > 20
C[C@@]12OC(=O)[C@]1(C(O)[C@H]1CCC[C@@H]3OC13)NC(=O)[C@@H]2CCCl (single isomer, unassigned) | 0.091 | 0.32 | 0.77 | 0.3 | 3.2
C[C@@]12OC(=O)[C@]1([C@@H](O)[C@@H]1C=CCCC1)NC(=O)[C@@H]2CCCl [MARIZOMIB] | 0.0026 | 0.0082 | – | 0.011 | 0.43
CC[C@@]12OC(=O)[C@]1([C@@H](O)[C@@H]1C=CCCC1)NC(=O)[C@@H]2CCCl | 2.1 | 1.9 | 3.3 | 3.6 | > 20
CCC[C@H]1C(=O)N[C@@]2([C@@H](O)[C@@H]3C=CCCC3)C(=O)O[C@@]12C | 0.024 | 6.3 | 1.1 | 1.9 | 1.2
C[C@@]12OC(=O)[C@]1([C@@H](O)C1CCCCC1)NC(=O)[C@@H]2CCCl | 0.02 | 0.052 | 0.25 | 0.071 | 1.4
CC(C)[C@H](O)[C@@]12NC(=O)[C@H](C)[C@@H]1OC2=O [OMURALIDE] | 0.057 | 3.3 | 0.54 | 1.6 | > 10
C[C@@]12OC(=O)C1([C@@H](O)[C@@H]1C=CCCC1)NC(=O)[C@@H]2CCO (single isomer, unassigned) [hydroxysalinosporamide A] | 0.008 | > 20 | 0.8 | 2.6 | 2.5
C[C@@]12OC(=O)[C@]1([C@@H](O)[C@@H]1C=CCCC1)NC(=O)C2CCCl (single isomer, unassigned) | 0.33 | 1.9 | 2.5 | 3.8 | > 20
C[C@H]1C(=O)N[C@@]2([C@@H](O)[C@@H]3C=CCCC3)C(=O)O[C@@]12C | 0.0077 | 8.5 | 0.34 | 0.85 | 1.2

— ChEMBL document CHEMBL1141932 (J Med Chem, 2005)
